Reference: US20220062166A1, “Self-Gelling Solutions for Administration of Therapeutics to the Inner Ear” (Spiral Therapeutics, Inc., priority 2019, published 2022)

Assays:
HEI-OC1 cells [1] = test: Release of mitochondrial cyt c in HEI-OC1 cells with CisPt (flow cytometry); format: cell-based; conditions: HEI-OC1 cells; after CisPt alone or pre-incubated with LPT99
Procedure: Flow cytometry was also used to characterize the effect of LPT99 in the release of mitochondrial cyt c in HEI-OC1 cells in vitro with CisPt prevention. Results
The effect of LPT99 on proliferation of non-apoptotic cells was studied. A549 cells were cultured in the presence of LPT99 for up to 6 days; the cell number was monitored by flow cytometry, and doubling time was calculated.

HEI-OC1 cells [2] = test: HEI-OC1 cell viability with CisPt; format: cell-based; conditions: CisPt 0 to 5 μg/mL
[3] = GLP auditory safety study in rats after single TT administration
Procedure: The study consisted of 10 groups of rats: 6 groups for toxicology (Groups 1 to 6, 20 males and 20 females per group), and 4 groups for toxicokinetics (Groups 7 to 10, 6 males and 6 females per group).
All animals were assessed weekly for body weights and qualitative food consumption. In addition, otoscopic evaluation of the dosing sites (tympanic membrane, Groups 1 to 6) and ABR testing for hearing function were performed at predosing; and on Days 1, 7, and/or 14. Animals in the toxicology groups (Groups 1 to 6) were sacrificed on Day 1 (10 males and 10 females per group) and Day 14 (the remaining 10 males and 10 females per group). At necropsy, terminal blood samples were tested for hematology, serum chemistry, and coagulation parameters. Gross observations were recorded, and selected organs were weighed. One ear per animal in Groups 1 to 5 was collected and processed for cytocochleogram assessment.

| Compound | release of mitochondrial cyt c (HEI-OC1 cells [1]) | HEI-OC1 cell viability IC50 of CisPt (HEI-OC1 cells [2]) | weight-normalized heart weights ([3]; Day 14, males, 400 mg/mL gentamicin vs saline controls, p≥0.05) | otoscopic scores (erythema, edema, wounds) of tympanic membranes ([3]; Days 1, 7, 14 vs control) |
| --- | --- | --- | --- | --- |
| N.N.[Cl][Pt][Cl] [CisPt, cisplatin, reference compound] | 28% ±6.6% | 4.47 ± 1.94 µg/mL | – | – |
| gentamicin [reference compound] | – | – | increased weight-normalized heart weights | increases in otoscopic scores |
